Results from ChEMBL document CHEMBL3046008, “Phenolics and their antifungal role in grapevine wood decay: focus on the Botryosphaeriaceae family” (J Agric Food Chem, 2012).
Calls of active or inactive are those of the source. The rule behind the calls is not given here.

Columns and labels:
[1] = test system: Phaeoacremonium minimum; experiment: Antifungal activity against Togninia minima SO21 assessed as susceptibility at 500 uM measured after 1 to 10 days; assay type: functional, organism-based
[2] = test system: Diplodia seriata; experiment: Antifungal activity against Diplodia seriata assessed as growth inhibition at 500 uM measured after 1 to 10 days relative to control; assay type: functional
[3] = test system: Neofusicoccum parvum; experiment: Antifungal activity against Neofusicoccum parvum assessed as growth inhibition at 500 uM measured after 1 to 10 days relative to control; assay type: functional
[4] = test system: Eutypa lata; experiment: Antifungal activity against Eutypa lata BX1-10 assessed as growth inhibition at 500 uM measured after 1 to 10 days relative to control; assay type: functional
[5] = test system: Eutypa lata; experiment: Induction of Eutypa lata BX1-10 growth at 500 uM; assay type: functional, organism-based
[6] = test system: Neofusicoccum parvum; experiment: Antifungal activity against Neofusicoccum parvum assessed as growth inhibition measured after 1 to 10 days; assay type: functional, organism-based
[7] = test system: Diplodia seriata; experiment: Antifungal activity against Diplodia seriata assessed as growth inhibition measured after 1 to 10 days; assay type: functional, organism-based
[8] = test system: Diplodia seriata; experiment: Antifungal activity against Diplodia seriata assessed as mycelium seemed to be halted measured after 2 days environmental scanning electron microscopy; assay type: functional, organism-based
[9] = test system: Eutypa lata; experiment: Antifungal activity against Eutypa lata BX1-10 assessed as growth inhibition measured after 1 to 10 days; assay type: functional, organism-based
[10] = test system: Diplodia seriata; experiment: Antifungal activity against Diplodia seriata assessed as mycelium denser around the initial plug and colonizing measured after 2 days by macroscopic analysis; assay type: functional, organism-based
[11] = test system: Phaeomoniella chlamydospora; experiment: Antifungal activity against Phaeomoniella chlamydospora assessed as growth inhibition at 500 uM measured after 1 to 10 days relative to control; assay type: functional

Structure (SMILES)	Activity [1]	growth inhibition (GI) [2]	growth inhibition (GI) [3]	also measured
COc1cc(/C=C/C(=O)O)cc(OC)c1O	inactive	–	–	–
Oc1ccc(/C=C/c2cc(O)cc(O)c2)cc1 [RESVERATROL]	inactive	–	–	fold change (FC) [2]: 1.6; fold change (FC) [3]: 1.1; fold change (FC) [4]: 1.7
Oc1cc(O)c2c(c1)O[C@H](c1ccc(O)c(O)c1)[C@H](O)C2	inactive	–	–	–
O=C(O)c1cc(O)c(O)c(O)c1	inactive	–	–	–
COc1cc(C(=O)O)ccc1O	inactive	–	–	–
O=C(O)/C=C/c1ccc(O)c(O)c1	inactive	–	–	–
O=c1c(O)c(-c2ccc(O)cc2)oc2cc(O)cc(O)c12	inactive	–	–	growth inhibition (GI) [4]: inactive
O=c1c(O)c(-c2ccc(O)c(O)c2)oc2cc(O)cc(O)c12	inactive	–	–	Activity [5]: Active
COc1cc(/C=C/c2ccc(O)cc2)cc(OC)c1 [PTEROSTILBENE]	inactive	Active	Active	IC50 [6]: 250 µM; IC50 [7]: 163 µM; Activity [8]: Active; IC50 [9]: 251 µM; Activity [10]: Active
Oc1cc(O)c2c(c1)O[C@H](c1ccc(O)c(O)c1)[C@@H](O)C2	inactive	–	–	–
Oc1ccc([C@H]2Oc3cc(O)cc(/C=C/c4ccc5c(c4)[C@@H](c4cc(O)cc6c4[C@H](c4cc(O)cc(O)c4)[C@@H](c4ccc(O)cc4)O6)[C@H](c4ccc(O)cc4)O5)c3[C@@H]2c2cc(O)cc(O)c2)cc1	inactive	Active	Active	–
OC[C@H]1O[C@@H](Oc2cc(O)cc(/C=C/c3ccc(O)cc3)c2)[C@H](O)[C@@H](O)[C@@H]1O	inactive	Active	Active	–
Oc1ccc(/C=C/c2cc(O)cc3c2[C@@H](c2cc(O)cc(O)c2)[C@H](c2ccc(O)cc2)O3)cc1 [EPSILON-VINIFERIN]	inactive	Active	Active	IC50 [7]: 260 µM
COc1cc(C(=O)O)cc(OC)c1O	inactive	–	–	–
Oc1cc(O)cc(/C=C/c2ccc(O)c(O)c2)c1 [PICEATANNOL]	inactive	Active	Active	IC50 [7]: 299 µM
Oc1ccc([C@H]2c3c(O)cc(O)cc3[C@H]3c4c(cc(O)cc4[C@@H]2c2cc(/C=C/c4cc(O)cc5c4[C@H](c4cc(O)cc(O)c4)[C@@H](c4ccc(O)cc4)O5)ccc2O)O[C@@H]3c2ccc(O)cc2)cc1	inactive	Active	Active	–
O=C(O)/C=C/c1ccc(O)cc1	inactive	–	–	–
O=C(/C=C/c1ccc(O)c(O)c1)O[C@@H]1C[C@](O)(C(=O)O)C[C@@H](O)[C@H]1O	inactive	–	–	–
O=C(O[C@@H]1Cc2c(O)cc(O)cc2O[C@@H]1c1ccc(O)c(O)c1)c1cc(O)c(O)c(O)c1	inactive	–	–	–
Oc1ccc([C@H]2c3c(O)cc(O)cc3[C@H]3c4c(cc(O)cc4[C@@H]2O)O[C@@H]3c2ccc(O)cc2)cc1	inactive	Active	Active	–
COc1cc(/C=C/C(=O)O)ccc1O [FERULATE]	inactive	–	–	fold change (FC) [2]: 1.6; fold change (FC) [3]: 1.5; fold change (FC) [11]: 1.4; fold change (FC) [4]: 2.2
